The assay deals with Tumour suppressor p53/oncoprotein Mdm2 (Homo sapiens, UniProt P04637+Q00987). The assay is described as follows: In vitro inhibitory concentration against p53-mdm2 interaction. It is filed as protein assay.

The values below come from ChEMBL document CHEMBL1137206, “A nonpeptidic sulfonamide inhibits the p53-mdm2 interaction and activates p53-dependent transcription in mdm2-overexpressing cells” (J Med Chem, 2004).

The term IC50 denotes the midpoint of a concentration-inhibition curve. High values mean lower potency, low ones higher potency.

Chain of Tumour suppressor p53/oncoprotein Mdm2 (P04637 whole entry): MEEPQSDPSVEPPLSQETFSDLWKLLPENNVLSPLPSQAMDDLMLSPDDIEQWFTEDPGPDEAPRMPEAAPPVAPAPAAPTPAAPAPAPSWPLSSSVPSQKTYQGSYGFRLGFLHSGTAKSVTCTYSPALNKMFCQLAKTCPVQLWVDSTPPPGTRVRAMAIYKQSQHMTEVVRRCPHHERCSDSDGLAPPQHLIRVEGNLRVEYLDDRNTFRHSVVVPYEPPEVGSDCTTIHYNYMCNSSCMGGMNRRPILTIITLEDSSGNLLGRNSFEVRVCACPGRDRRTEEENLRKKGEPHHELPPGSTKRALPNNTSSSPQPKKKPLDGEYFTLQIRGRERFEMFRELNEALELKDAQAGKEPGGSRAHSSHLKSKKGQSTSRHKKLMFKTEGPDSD
Chain of Tumour suppressor p53/oncoprotein Mdm2 (Q00987 whole entry): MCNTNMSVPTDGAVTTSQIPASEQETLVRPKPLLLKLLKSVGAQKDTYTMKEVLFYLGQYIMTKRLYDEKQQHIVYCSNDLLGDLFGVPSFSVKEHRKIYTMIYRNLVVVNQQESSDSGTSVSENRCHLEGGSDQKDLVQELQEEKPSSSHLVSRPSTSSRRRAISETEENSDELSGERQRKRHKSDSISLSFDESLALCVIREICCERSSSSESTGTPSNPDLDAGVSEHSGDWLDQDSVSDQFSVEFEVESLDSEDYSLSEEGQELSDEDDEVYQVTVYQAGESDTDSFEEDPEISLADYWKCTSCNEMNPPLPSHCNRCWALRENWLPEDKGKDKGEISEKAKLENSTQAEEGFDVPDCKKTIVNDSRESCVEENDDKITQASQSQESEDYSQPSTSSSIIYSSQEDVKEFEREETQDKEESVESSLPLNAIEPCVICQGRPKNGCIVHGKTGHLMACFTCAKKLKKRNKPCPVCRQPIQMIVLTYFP

Take `CC(C)Oc1ccc(C(=O)NS(=O)(=O)c2ccc(NN=C3C(=O)N(c4ccccc4)N(c4ccccc4)C3=O)cc2)cc1`: inhibition was half-maximal at 31.8 µM (IC50).
